Source: US20080027145A1, “Therapeutic Molecules and Methods for Generating and/or Selecting Same” (priority 2004, published 2008)
pIC50: −log10 of the molar value.

Experiments:
[1] = target: T1, A1 ΔC20 (Mus musculus, UniProt Q07440); test: Direct binding to immobilized BH3 peptide, Biacore biosensor; conditions: BadBH3 or NoxaBH3 immobilized chip
T1 construct: mouse A1 (Acc. no. NP_033872; residues 1-152); GST (N, cleaved yes); made in house
T1 sequence (Q07440 1-152): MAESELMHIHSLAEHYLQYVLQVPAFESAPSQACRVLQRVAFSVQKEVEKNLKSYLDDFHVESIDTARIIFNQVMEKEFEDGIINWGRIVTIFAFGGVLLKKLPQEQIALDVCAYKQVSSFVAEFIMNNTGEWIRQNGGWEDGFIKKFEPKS
Protocol: (§1) Recombinant human Bcl-xL ΔC24, mouse Mcl-1 ΔN151 ΔC23 and mouse A1 ΔC20 were expressed as GST fusion proteins and cleaved off Glutathione Sepharose columns as described (Day et al., Cell Death Differ 6:1125-1132, 1999; Hinds et al., EMBO J 22:1497-1507, 2003).
(§2) Affinity measurements were performed at room temperature on a Biacore 3000 biosensor (Biacore) with HBS (10 mM HEPES pH 7.2, 150 mM NaCl, 3.4 mM EDTA, 0.005% Tween 20) as the running buffer. Mouse 26-mer ^wtBimBH3, ^4EBimBH3 mutant, BadBH3, NoxaBH3 or control irrelevant peptides were immobilized onto CM5 sensor chips using amine-coupling chemistry (Wilson-Annan et al., Supra). To assess the binding affinities of pro-survival Bcl-2-like proteins for BimBH3 directly, the proteins were directly injected into the sensor chip at 20 μl/min. Residual bound proteins were desorbed with 50 mM NaOH or 6 M GuHCl (pH 7.2), followed by two washes with running buffer. Binding kinetics were derived from sensorgrams, following subtraction of baseline responses, using BIA evaluation software (version 3, Biacore) (Wilson-Annan et al., Supra).
(§3) The binding constants of the pro-survival molecules for ^wtBimBH3, immobilized on sensor chip, were determined using biosensor experiments as described in Hinds et al., Supra; Wilson-Annan et al., Supra.

[2] = target: T2, Bcl-2 ΔC22 (Homo sapiens, UniProt P10415); test: as above; conditions: BadBH3 or NoxaBH3 immobilized chip
T2 construct: Human Bcl-2 (Acc. no. NP_000624; residues 1-217); made in house
Protocol: as §1, §2, §3

[3] = target: T3, Bcl-w ΔC29 (Homo sapiens, UniProt Q92843, A128E/C29S); test: as above; conditions: BadBH3 or NoxaBH3 immobilized chip
T3 construct: human Bcl-w (Acc. no. NP_004041; residues 1-164; C29S A128E); made in house
T3 sequence (Q92843 1-164 C29S/A128E): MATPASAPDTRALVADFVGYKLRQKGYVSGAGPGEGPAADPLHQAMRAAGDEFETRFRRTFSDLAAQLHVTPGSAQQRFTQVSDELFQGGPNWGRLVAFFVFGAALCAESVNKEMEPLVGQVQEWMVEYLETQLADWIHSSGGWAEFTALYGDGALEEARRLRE
Protocol: as §1, §2, §3

[4] = target: T4, Bcl-xL ΔC24 (Homo sapiens, UniProt Q07817); test: as above; conditions: BadBH3 or NoxaBH3 immobilized chip
T4 construct: Human Bcl-xL (Acc. no. NP_612815; residues 1-209); GST (N, cleaved yes); made in house
Protocol: as §1, §2, §3

[5] = target: T5, Mcl-1 ΔN151 ΔC23 (Mus musculus, UniProt P97287); test: as above; conditions: BadBH3 or NoxaBH3 immobilized chip
T5 construct: mouse Mcl-1 (Acc. no. NP_031588; residues 152-308); GST (N, cleaved yes); made in house
Protocol: as §1, §2, §3

[6] = target: T6, Mcl-1 (Mus musculus, UniProt P97287); test: Solution competition assay (competition with immobilized wtBimBH3, biosensor); assay type: binding; conditions: Mcl-1
T6 construct: mouse Mcl-1 (Acc. no. NP_031588; residues 152-308); GST (N, cleaved yes); made in house
Protocol: (§4) The relative affinities of BH3 peptides for pro-survival Bcl-2 proteins were assessed by comparing their abilities to compete with immobilized ^wtBimBH3 peptide for binding to Bcl-2-like proteins (Wilson-Annan et al., Supra). A fixed sub-saturating amount (10 nM) of a pro-survival Bcl-2 protein was incubated with varying amounts of competitor BH3 peptide in HBS for >2 hr on ice. The mixtures were then injected over a sensor chip containing a channel bearing mouse ^wtBimBH3 and a control channel with mouse ^4EBimBH3 immobilized. The baseline response (control channel) was subtracted to obtain the absolute binding response. Taking the response for the pro-survival protein alone as the maximal response (100%), the relative residual binding (%) in the presence of increasing amounts of competitor peptides at a given injection time point (430 s) was then calculated. […] Theoretically, IC50=[A]/2+KD, where [A] is the analyte concentration.
(§5) Some of recombinant proteins (Bcl-2, Bcl-xL, A1) studied contain cysteine residues but the behavior of Bcl-2 or Bcl-xL was not affected by dithiothreitol (DTT).
(§6) To assess if other BH3 peptides bind pro-survival proteins similarly, we directly compared their binding affinities in solution using a competitive binding assay. In such assays, the quality and absolute quantity of target proteins are less critical than in direct binding, and solution binding precludes the steric hindrance encountered with some immobilized peptides. FIG. 1C illustrates the approach: pre-incubation of Bcl-xL in solution with increasing amounts of BikBH3 reduced its binding to ^wtBimBH3 (FIG. 1D). From the attenuation in binding, the IC50 (competitor peptide concentration that halves binding) of BikBH3 can be calculated (FIG. 1E). As the IC50 values reflect relative binding affinities (see Experimental Procedures), we used this assay to compare the binding affinities of eight BH3 peptides (Table 3) to the five pro-survival proteins. […] Their binding properties fell into several classes (FIG. 2B and FIG. 4). […] Contrary to the prevailing view, the pro-survival proteins also had unique patterns for BH3 binding: Bcl-xL behaved like Bcl-w, with Bcl-2 more distinct, whereas Mcl-1 and A1 formed a separate group (FIG. 2B).

[7] = tested on: pro-survival proteins (Bcl-2, Bcl-xL, Bcl-w, Mcl-1, A1); test: Solution competition assay, statements spanning several pro-survival proteins; assay type: binding, human and mouse; conditions: Bcl-2, Bcl-xL, Bcl-w, Mcl-1, A1
Protocol: as §4, §5, §6

T6 sequence (P97287 152-308): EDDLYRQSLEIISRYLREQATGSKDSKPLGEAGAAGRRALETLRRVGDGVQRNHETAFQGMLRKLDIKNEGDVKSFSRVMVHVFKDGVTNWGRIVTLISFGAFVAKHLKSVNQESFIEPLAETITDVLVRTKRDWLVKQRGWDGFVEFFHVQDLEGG
T5 sequence (P97287 152-308): as above
T2 sequence (P10415 1-217): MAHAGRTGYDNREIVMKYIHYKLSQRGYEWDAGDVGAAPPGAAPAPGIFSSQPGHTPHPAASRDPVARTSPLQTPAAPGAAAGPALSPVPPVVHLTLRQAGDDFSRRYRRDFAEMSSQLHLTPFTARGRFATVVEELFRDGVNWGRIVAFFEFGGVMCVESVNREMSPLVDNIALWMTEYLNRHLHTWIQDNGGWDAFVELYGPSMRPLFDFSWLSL
T4 sequence (Q07817 1-209): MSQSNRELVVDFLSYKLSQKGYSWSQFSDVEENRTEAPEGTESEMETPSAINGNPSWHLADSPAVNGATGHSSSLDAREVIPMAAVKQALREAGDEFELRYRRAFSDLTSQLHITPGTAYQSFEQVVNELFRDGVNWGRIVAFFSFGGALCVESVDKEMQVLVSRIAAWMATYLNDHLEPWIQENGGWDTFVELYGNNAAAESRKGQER

binding of A1 to immobilized peptide [1]: no affinity
binding of Bcl-2 to immobilized peptide [2]: avidly
binding of Bcl-w to immobilized peptide [3]: avidly
binding of Bcl-xL to immobilized peptide [4]: avidly
binding of Mcl-1 to immobilized peptide [5]: no affinity
pIC50 [6]: < 4.00
Structure (SMILES): CSCC[C@H](NC(=O)[C@H](CCCNC(=N)N)NC(=O)[C@H](CCCNC(=N)N)NC(=O)[C@H](CC(C)C)NC(=O)[C@H](CCC(=O)O)NC(=O)[C@H](CCCNC(=N)N)NC(=O)CNC(=O)[C@H](Cc1ccc(O)cc1)NC(=O)[C@H](CCCNC(=N)N)NC(=O)[C@H](CCC(N)=O)NC(=O)[C@H](C)NC(=O)[C@H](C)NC(=O)[C@H](Cc1c[nH]c2ccccc12)NC(=O)[C@H](CC(C)C)NC(=O)[C@@H](N)CC(N)=O)C(=O)N[C@@H](CO)C(=O)N[C@@H](CC(=O)O)C(=O)N[C@@H](CCC(=O)O)C(=O)N[C@@H](Cc1ccccc1)C(=O)N[C@H](C(=O)N[C@@H](CC(=O)O)C(=O)N[C@@H](CO)C(=O)N[C@@H](Cc1ccccc1)C(=O)N[C@@H](CCCCN)C(=O)N[C@@H](CCCCN)C(=O)NCC(=O)O)C(C)C [BadBH3]
binding preference among pro-survival proteins [7]: strongly preferred Bcl-2, BCl-xL and Bcl-w
